According to PubChem BioAssay AID248 (DTP/NCI, 2004):
“And” between values parts separate entries of the source, which are not always exact repeats. Identical values can stand only once. Inconclusive results and toxic doses are left out.

System: L1210 leukemia ip in BDF1 mice, survival T/C
Test: NCI In Vivo Anticancer Drug Screen. Data for tumor model L1210 Leukemia (intraperitoneal) in B6D2F1 (BDF1) mice
Settings: endpoint: mean survival time, higher = longer survival
Summary of the method: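 Transplanted-tumor mice were given test agent; controls received vehicle only. Survival readings from the two groups were divided (treated over control).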

[1] = dose: 10.0 mg/kg/injection, schedule: Q01DX009 (ip), vehicle: saline
[2] = dose: 20.0 mg/kg/injection, schedule: Q01DX009 (ip), vehicle: saline
[3] = dose: 100.0 mg/kg/injection, schedule: Q01DX009 (ip), vehicle: Klucel (hydroxypropylcellulose) (HPC)
[4] = dose: 100.0 mg/kg/injection, schedule: Q04DX003 (ip), vehicle: Klucel (hydroxypropylcellulose) (HPC)
[5] = dose: 200.0 mg/kg/injection, schedule: Q01DX009 (ip), vehicle: Klucel (hydroxypropylcellulose) (HPC)
[6] = dose: 200.0 mg/kg/injection, schedule: Q04DX003 (ip), vehicle: Klucel (hydroxypropylcellulose) (HPC)

SMILES: COc1ccc2c(c1)Cc1cc(NC(=O)N(CCCl)N=O)ccc1-2
- T/C [1]: 151 % of control
- T/C [2]: 175 % of control
- T/C (dose: 25.0 mg/kg/injection, schedule: Q01DX001 (ip), vehicle: other): 122 % of control
- T/C (dose: 33.0 mg/kg/injection, schedule: Q01DX009 (ip), vehicle: carboxymethylcellulose (CMC)): 188 % of control
- T/C (dose: 45.0 mg/kg/injection, schedule: Q01DX001 (ip), vehicle: other): 123 % of control
- T/C (dose: 50.0 mg/kg/injection, schedule: Q01DX009 (ip), vehicle: carboxymethylcellulose (CMC)): 163 % of control
- T/C (dose: 80.0 mg/kg/injection, schedule: Q01DX009 (ip), vehicle: other): 123 % of control
- T/C (dose: 177.0 mg/kg/injection, schedule: Q01DX001 (ip), vehicle: carboxymethylcellulose (CMC)): 182 % of control
- T/C (dose: 177.0 mg/kg/injection, schedule: Q01DX001 (ip), vehicle: other): 154 % of control
- T/C (dose: 177.0 mg/kg/injection, schedule: Q01DX009 (ip), vehicle: carboxymethylcellulose (CMC)): 107 % of control
- T/C (dose: 266.0 mg/kg/injection, schedule: Q01DX001 (ip), vehicle: carboxymethylcellulose (CMC)): 178 % of control
- T/C (dose: 266.0 mg/kg/injection, schedule: Q01DX001 (ip), vehicle: other): 154 % of control
- T/C (dose: 266.0 mg/kg/injection, schedule: Q01DX009 (ip), vehicle: carboxymethylcellulose (CMC)): 97 % of control
- T/C (dose: 400.0 mg/kg/injection, schedule: Q01DX001 (ip), vehicle: carboxymethylcellulose (CMC)): 193 % of control
- T/C (dose: 400.0 mg/kg/injection, schedule: Q01DX009 (ip), vehicle: carboxymethylcellulose (CMC)): 96 % of control
- T/C (dose: 600.0 mg/kg/injection, schedule: Q01DX001 (ip), vehicle: carboxymethylcellulose (CMC)): 186 % of control

SMILES: CCn1nnc2c(=O)[nH]c(N)nc21
- T/C (dose: 100.0 mg/kg/injection, schedule: Q04DX003 (ip), vehicle: saline with Tween-80): 105 % of control
- T/C (dose: 200.0 mg/kg/injection, schedule: Q04DX003 (ip), vehicle: saline with Tween-80): 104 % of control
- T/C (dose: 400.0 mg/kg/injection, schedule: Q04DX003 (ip), vehicle: saline with Tween-80): 94 % of control

SMILES: CCNC(=S)C(=S)NCC
- T/C (dose: 3.0 mg/kg/injection, schedule: Q01DX009 (ip), vehicle: Klucel (hydroxypropylcellulose) (HPC)): 92 % of control
- T/C (dose: 3.12 mg/kg/injection, schedule: Q04DX003 (ip), vehicle: Klucel (hydroxypropylcellulose) (HPC)): 100 % of control
- T/C (dose: 6.0 mg/kg/injection, schedule: Q01DX009 (ip), vehicle: Klucel (hydroxypropylcellulose) (HPC)): 97 % of control
- T/C (dose: 6.25 mg/kg/injection, schedule: Q04DX003 (ip), vehicle: Klucel (hydroxypropylcellulose) (HPC)): 104 % of control
- T/C (dose: 12.5 mg/kg/injection, schedule: Q04DX003 (ip), vehicle: Klucel (hydroxypropylcellulose) (HPC)): 98 % of control and 106 % of control

SMILES: CCCCC(=O)C1CN(C(C)(C)C)C1
- T/C (dose: 5.0 mg/kg/injection, schedule: Q01DX001 (ip), vehicle: saline): 102 % of control
- T/C (dose: 5.0 mg/kg/injection, schedule: Q01DX009 (ip), vehicle: saline): 104 % of control
- T/C (dose: 10.0 mg/kg/injection, schedule: Q01DX001 (ip), vehicle: saline): 97 % of control
- T/C [1]: 111 % of control
- T/C (dose: 20.0 mg/kg/injection, schedule: Q01DX001 (ip), vehicle: saline): 102 % of control
- T/C [2]: 97 % of control

SMILES: COc1cc(/C=C\[N+](=O)[O-])ccc1OCc1ccccc1
- T/C (dose: 50.0 mg/kg/injection, schedule: Q01DX009 (ip), vehicle: Klucel (hydroxypropylcellulose) (HPC)): 94 % of control
- T/C (dose: 50.0 mg/kg/injection, schedule: Q04DX003 (ip), vehicle: Klucel (hydroxypropylcellulose) (HPC)): 98 % of control
- T/C [3]: 103 % of control
- T/C [4]: 104 % of control
- T/C [5]: 95 % of control
- T/C [6]: 91 % of control

SMILES: Cc1ccc(NC(=O)c2c(Br)c(Br)c(Br)c(Br)c2C(=O)O)cc1Cl
- T/C [3]: 100 % of control
- T/C (dose: 100.0 mg/kg/injection, schedule: Q04DX002 (ip), vehicle: Klucel (hydroxypropylcellulose) (HPC)): 96 % of control
- T/C [5]: 96 % of control
- T/C (dose: 200.0 mg/kg/injection, schedule: Q04DX002 (ip), vehicle: Klucel (hydroxypropylcellulose) (HPC)): 110 % of control
- T/C (dose: 400.0 mg/kg/injection, schedule: Q04DX002 (ip), vehicle: Klucel (hydroxypropylcellulose) (HPC)): 102 % of control

SMILES: C1=C2CN3CCC45c6ccccc6N6CCC(OC1)C(C2CC34)C65 (stereo not drawn)
- T/C (dose: 1.25 mg/kg/injection, schedule: Q01DX001 (ip), vehicle: other): 105 % of control

SMILES: Cc1ccc(C)c(NC(=O)NC(C)C)c1
- T/C [3]: 94 % of control
- T/C [4]: 96 % of control
- T/C [5]: 94 % of control
- T/C [6]: 91 % of control
- T/C (dose: 400.0 mg/kg/injection, schedule: Q01DX009 (ip), vehicle: Klucel (hydroxypropylcellulose) (HPC)): 91 % of control
- T/C (dose: 400.0 mg/kg/injection, schedule: Q04DX003 (ip), vehicle: Klucel (hydroxypropylcellulose) (HPC)): 89 % of control
